Structures can show the parent of a compound that is named as a salt.
target: T1, TBK1 (Homo sapiens, UniProt Q9UHD2); assay: TBK1 protein kinase assay ([γ-33P]ATP, P81 filterplates); assay type: biochemical; settings: 50 μM ATP; read-out: Potency (TBK1 IC50 potency score)
T1 construct: All protein kinases were of human origin and encoded full length proteins, unless indicated otherwise; His6; made in house; host or cells: insect Sf21 cells
T1 sequence (Q9UHD2 1-729): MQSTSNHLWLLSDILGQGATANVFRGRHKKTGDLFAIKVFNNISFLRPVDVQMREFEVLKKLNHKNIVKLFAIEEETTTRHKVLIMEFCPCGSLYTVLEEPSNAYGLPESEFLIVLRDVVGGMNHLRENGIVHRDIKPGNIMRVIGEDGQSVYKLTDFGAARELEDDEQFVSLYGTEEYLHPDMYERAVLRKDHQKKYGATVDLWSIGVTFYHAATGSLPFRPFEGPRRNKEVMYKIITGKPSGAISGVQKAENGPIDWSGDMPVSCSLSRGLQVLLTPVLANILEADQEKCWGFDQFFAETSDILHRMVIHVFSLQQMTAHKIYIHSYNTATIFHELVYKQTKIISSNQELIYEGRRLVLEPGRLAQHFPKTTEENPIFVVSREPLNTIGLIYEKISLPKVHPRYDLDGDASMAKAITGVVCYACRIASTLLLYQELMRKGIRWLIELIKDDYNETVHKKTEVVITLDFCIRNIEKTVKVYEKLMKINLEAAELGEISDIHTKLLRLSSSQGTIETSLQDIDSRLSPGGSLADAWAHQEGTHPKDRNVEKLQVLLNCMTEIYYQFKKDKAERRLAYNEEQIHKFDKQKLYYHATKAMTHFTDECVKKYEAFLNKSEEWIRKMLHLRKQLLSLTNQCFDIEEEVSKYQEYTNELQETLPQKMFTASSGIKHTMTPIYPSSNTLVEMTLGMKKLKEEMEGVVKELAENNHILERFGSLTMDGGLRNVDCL
In short: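 Human TBK1 assayed for 30 min with peptide substrate (300 μM), 50 μM [γ-33P]ATP and 10 mM magnesium acetate in 50 mM Tris/HCl pH 7.5, 0.1 mM EGTA, 0.1% 2-mercaptoethanol. Stopped with orthophosphoric acid and counted on P81 filters. IC50 from 10 compound concentrations.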

IC50, < 100 nM:
O=C(NCCCNc1nc(Nc2ccc(-c3cn[nH]c3)nc2)ncc1C1CC1)C1CCC1 [Example 118, Cyclobutanecarboxylic acid (3-{5-cyclopropyl-2-[6-(1H-pyrazol-4-yl)-pyridin-3-ylamino]-pyrimidin-4-ylamino}-propyl)-amide]
O=C(NCCCNc1nc(Nc2ccc(-c3ccncc3)nc2)ncc1C1CC1)C1CCC1 [Example 119, Cyclobutanecarboxylic acid {3-[2-([2,4′]bipyridinyl-5-ylamino)-5-cyclopropyl-pyrimidin-4-ylamino]-propyl}-amide]
O=C(NCCCNc1nc(Nc2ccc(-c3cccnc3)nc2)ncc1C1CC1)C1CCC1 [Example 120, Cyclobutanecarboxylic acid {3-[2-([2,3′]bipyridinyl-5-ylamino)-5-cyclopropyl-pyrimidin-4-ylamino]-propyl}-amide]
O=C(NCCCNc1nc(Nc2cccc(-c3ccncc3)c2)ncc1C1CC1)C1CCC1 [Example 121, Cyclobutanecarboxylic acid {3-[5-cyclopropyl-2-(3-pyridin-4-yl-phenylamino)-pyrimidin-4-ylamino]-propyl}-amide]
CN1CCN(Cc2cccc(Nc3ncc(C4CC4)c(NCCCNC(=O)C4CCC4)n3)c2)CC1 [Example 122, Cyclobutanecarboxylic acid (3-{5-cyclopropyl-2-[3-(4-methyl-piperazin-1-ylmethyl)-phenylamino]-pyrimidin-4-ylamino}-propyl)-amide]
CC(c1cccc(Nc2ncc(C3CC3)c(NCCCNC(=O)C3CCC3)n2)c1)N1CCOCC1 (stereo not drawn) [Example 123, Cyclobutanecarboxylic acid (3-{5-cyclopropyl-2-[3-(1-morpholin-4-yl-ethyl)-phenylamino]-pyrimidin-4-ylamino}-propyl)-amide]
O=C(NCCCNc1nc(Nc2cccc(C(=O)N3CCCC3)c2)ncc1C1CC1)C1CCC1 [Example 124, Cyclobutanecarboxylic acid (3-{5-cyclopropyl-2-[3-(pyrrolidine-1-carbonyl)-phenylamino]-pyrimidin-4-ylamino}-propyl)-amide]
CN(C)[C@H]1CCN(C(=O)c2cccc(Nc3ncc(C4CC4)c(NCCCNC(=O)C4CCC4)n3)c2)C1 [Example 125, Cyclobutanecarboxylic acid (3-{5-cyclopropyl-2-[3-((S)-3-dimethylamino-pyrrolidine-1-carbonyl)-phenylamino]-pyrimidin-4-ylamino}-propyl)-amide]
CN(C)[C@@H]1CCN(C(=O)c2cccc(Nc3ncc(C4CC4)c(NCCCNC(=O)C4CCC4)n3)c2)C1 [Example 126, Cyclobutanecarboxylic acid (3-{5-cyclopropyl-2-[3-((R)-3-dimethylamino-pyrrolidine-1-carbonyl)-phenylamino]-pyrimidin-4-ylamino}-propyl)-amide]
CN1CCN(C(=O)Cc2cccc(Nc3ncc(C4CC4)c(NCCCNC(=O)C4CCC4)n3)c2)CC1 [Example 127, Cyclobutanecarboxylic acid [3-(5-cyclopropyl-2-{3-[2-(4-methyl-piperazin-1-yl)-2-oxo-ethyl]-phenylamino}-pyrimidin-4-ylamino)-propyl]-amide]
CN(C)C1CCN(C(=O)Cc2cccc(Nc3ncc(C4CC4)c(NCCCNC(=O)C4CCC4)n3)c2)CC1 [Example 128, Cyclobutanecarboxylic acid [3-(5-cyclopropyl-2-{3-[2-(4-dimethylamino-piperidin-1-yl)-2-oxo-ethyl]-phenylamino}-pyrimidin-4-ylamino)-propyl]-amide]
O=C(NCCCNc1nc(Nc2ccc3cn[nH]c3c2)ncc1C1CC1)C1CCC1 [Example 129, Cyclobutanecarboxylic acid {3-[5-cyclopropyl-2-(1H-indazol-6-ylamino)-pyrimidin-4-ylamino]-propyl}-amide. Hydrochloride]
O=C(NCCCNc1nc(Nc2ccc3[nH]ncc3c2)ncc1C1CC1)C1CCC1 [Example 130, Cyclobutanecarboxylic acid {3-[5-cyclopropyl-2-(1H-indazol-5-ylamino)-pyrimidin-4-ylamino]-propyl}-amide]
O=C(NCCCNc1nc(Nc2cccc(CN3CCCC3)c2)ncc1C1CC1)C1CCC1 [Example 131, Cyclobutanecarboxylic acid {3-[5-cyclopropyl-2-(3-pyrrolidin-1-ylmethyl-phenylamino)-pyrimidin-4-ylamino]-propyl}-amide]
CN(Cc1cccc(Nc2ncc(C3CC3)c(NCCCNC(=O)C3CCC3)n2)c1)C1CCCC1 [Example 132, Cyclobutanecarboxylic acid [3-(2-{3-[(cyclopentyl-methyl-amino)-methyl]-phenylamino}-5-cyclopropyl-pyrimidin-4-ylamino)-propyl]-amide]
CC(C)CN(C)Cc1cccc(Nc2ncc(C3CC3)c(NCCCNC(=O)C3CCC3)n2)c1 [Example 133, Cyclobutanecarboxylic acid [3-(5-cyclopropyl-2-{3-[(isobutyl-methyl-amino)-methyl]-phenylamino}-pyrimidin-4-ylamino)-propyl]-amide]
O=C(NCCCNc1nc(Nc2cccc(CN3CCCCC3)c2)ncc1C1CC1)C1CCC1 [Example 134, Cyclobulanecarboxylic acid {3-[5-cyclopropyl-2-(3-piperidin-1-ylmethyl-phenylamino)-pyrimidin-4-ylamino]-propyl}-amide]
O=C(NCCCNc1nc(Nc2cccc(CN3CCC(F)(F)CC3)c2)ncc1C1CC1)C1CCC1 [Example 135, Cyclobutanecarboxylic acid (3-{5-cyclopropyl-2-[3-(4,4-difluoro-piperidin-1-ylmethyl)-phenylamino]-pyrimidin-4-ylamino}-propyl)-amide]
N#CCc1cccc(Nc2ncc(C3CC3)c(NCCCNC(=O)C3CCC3)n2)c1 [Example 136, Cyclobutanecarboxylic acid {3-[2-(3-cyanomethyl-phenylamino)-5-cyclopropyl-pyrimidin-4-ylamino]-propyl}-amide]
Cn1ncc2cc(Nc3ncc(C4CC4)c(NCCCNC(=O)C4CCC4)n3)ccc21 [Example 137, Cyclobutanecarboxylic acid {3-[5-cyclopropyl-2-(1-methyl-1H-indazol-5-ylamino)-pyrimidin-4-ylamino]-propyl}-amide]
Cn1cc2ccc(Nc3ncc(C4CC4)c(NCCCNC(=O)C4CCC4)n3)cc2n1 [Example 138, Cyclobutanecarboxylic acid {3-[5-cyclopropyl-2-(2-methyl-2H-indazol-6-ylamino)-pyrimidin-4-ylamino]-propyl}-amide]
Cn1ncc2ccc(Nc3ncc(C4CC4)c(NCCCNC(=O)C4CCC4)n3)cc21 [Example 139, Cyclobutanecarboxylic acid {3-[5-cyclopropyl-2-(1-methyl-1H-indazol-6-ylamino)-pyrimidin-4-ylamino]-propyl}-amide]
O=C(NCCCNc1nc(Nc2cccc(N3CCNC3=O)c2)ncc1C1CC1)C1CCC1 [Example 140, Cyclobutanecarboxylic acid (3-{5-cyclopropyl-2-[3-(2-oxo-imidazolidin-1-yl)-phenylamino]-pyrimidin-4-ylamino}-propyl)-amide]
O=C(NCCCNc1nc(Nc2cccc(Br)c2)ncc1C1CC1)C1CCC1 [Example 141, Cyclobutanecarboxylic acid {3-[2-(3-bromo-phenylamino)-5-cyclopropyl-pyrimidin-4-ylamino]-propyl}-amide]
O=C(NCCCNc1nc(Nc2cccc(C(=O)N3CCNCC3)c2)ncc1C1CC1)C1CCC1 [Example 142, Cyclobutanecarboxylic acid (3-{5-cyclopropyl-2-[3-(piperazine-1-carbonyl)-phenylamino]-pyrimidin-4-ylamino}-propyl)-amide. Hydrochloride]
O=C(NCCCNc1nc(Nc2cccc(OCCN3CCOCC3)c2)ncc1C1CC1)C1CCC1 [Example 143, Cyclobutanecarboxylic acid (3-{5-cyclopropyl-2-[3-(2-morpholin-4-yl-ethoxy)-phenylamino]-pyrimidin-4-ylamino}-propyl)-amide]
O=C(NCCCNc1nc(Nc2cccc(NC(=O)N3CCCC3)c2)ncc1C1CC1)C1CCC1 [Example 144, Pyrrolidine-1-carboxylic acid (3-{4-[3-(cyclobutanecarbonyl-amino)-propylamino]-5-cyclopropyl-pyrimidin-2-ylamino}-phenyl)-amide]

— patent US20100056524A1, “Compound” (priority 2008, published 2010)
